{
  "source": "paper PMC9501633",
  "about": "“Synthesis, Characterisation and Mechanism of Action of Anticancer 3-Fluoroazetidin-2-ones” (Pharmaceuticals, 2022)",
  "assay_type_in_all_cases": "cell-based, human",
  "key": {"[1]": {"test_system": "MCF7", "assay": "NCI 60 cell line screen, Breast", "details": "one dose 10 µM"}, "[2]": {"test_system": "IGROV1", "assay": "NCI 60 cell line screen, Ovarian"}, "[3]": {"test_system": "MDA-MB-435", "assay": "NCI 60 cell line screen, Melanoma", "details": "one dose 10 µM"}, "[4]": {"test_system": "SNB-19", "assay": "NCI 60 cell line screen, CNS", "details": "one dose 10 µM"}, "[5]": {"test_system": "MDA-MB-231/ATCC", "assay": "NCI 60 cell line screen, Breast", "details": "one dose 10 µM"}, "[6]": {"test_system": "PC-3", "assay": "NCI 60 cell line screen, Prostate", "details": "one dose 10 µM"}, "[7]": {"test_system": "HL-60(TB)", "assay": "NCI 60 cell line screen, Leukaemia", "details": "one dose 10 µM"}, "[8]": {"test_system": "OVCAR-3", "assay": "NCI 60 cell line screen, Ovarian", "details": "one dose 10 µM"}, "[9]": {"test_system": "M14", "assay": "NCI 60 cell line screen, Melanoma", "details": "one dose 10 µM"}, "[10]": {"test_system": "K-562", "assay": "NCI 60 cell line screen, Leukaemia"}, "[11]": {"test_system": "LOX IMVI", "assay": "NCI 60 cell line screen, Melanoma", "details": "one dose 10 µM"}, "[12]": {"test_system": "HCT-116", "assay": "NCI 60 cell line screen, Colon", "details": "one dose 10 µM"}, "[13]": {"test_system": "KM12", "assay": "NCI 60 cell line screen, Colon", "details": "one dose 10 µM"}, "[14]": {"test_system": "NCI-H522", "assay": "NCI 60 cell line screen, NSCLung", "details": "one dose 10 µM"}, "[15]": {"test_system": "COLO 205", "assay": "NCI 60 cell line screen, Colon", "details": "one dose 10 µM"}, "[16]": {"test_system": "OVCAR-8", "assay": "NCI 60 cell line screen, Ovarian", "details": "one dose 10 µM"}, "[17]": {"test_system": "HCT-15", "assay": "NCI 60 cell line screen, Colon", "details": "one dose 10 µM"}, "[18]": {"test_system": "CCRF-CEM", "assay": "NCI 60 cell line screen, Leukaemia", "details": "one dose 10 µM"}, "[19]": {"test_system": "UACC-257", "assay": "NCI 60 cell line screen, Melanoma", "details": "one dose 10 µM"}, "[20]": {"test_system": "HS 578T", "assay": "NCI 60 cell line screen, Breast", "details": "one dose 10 µM"}, "[21]": {"test_system": "UACC-62", "assay": "NCI 60 cell line screen, Melanoma", "details": "one dose 10 µM"}, "[22]": {"test_system": "EKVX", "assay": "NCI 60 cell line screen, NSCLung", "details": "one dose 10 µM"}, "[23]": {"test_system": "MOLT-4", "assay": "NCI 60 cell line screen, Leukaemia", "details": "one dose 10 µM"}, "[24]": {"test_system": "A549/A TCC", "assay": "NCI 60 cell line screen, NSCLung", "details": "one dose 10 µM"}, "[25]": {"test_system": "A498", "assay": "NCI 60 cell line screen, Renal", "details": "one dose 10 µM"}, "[26]": {"test_system": "786–0", "assay": "NCI 60 cell line screen, Renal", "details": "786-0, one dose 10 µM"}, "[27]": {"test_system": "MDA-MB-468", "assay": "NCI 60 cell line screen, Breast", "details": "one dose 10 µM"}, "[28]": {"test_system": "NCI/ADR-RES", "assay": "NCI 60 cell line screen, Ovarian", "details": "one dose 10 µM"}, "[29]": {"test_system": "NCI-H23", "assay": "NCI 60 cell line screen, NSCLung", "details": "one dose 10 µM"}, "[30]": {"test_system": "SNB-75", "assay": "NCI 60 cell line screen, CNS", "details": "one dose 10 µM"}},
  "data": [
    {"smiles": "COc1ccc(C2N(c3cc(OC)c(OC)c(OC)c3)C(=O)C2(F)F)cc1F", "note": "(stereo not shown) [Compound 43, 3,3-Difluoro-4-(3-fluoro-4-methoxyphenyl)-1-(3,4,5-trimethoxyphenyl)azetidin-2-one]", "values": [
      {"measurement": "inhibition at 10 µM", "setting": "[1]; Homo sapiens, MCF7, MCF7", "value": 84.9, "unit": "%"},
      {"measurement": "Growth %", "setting": "[1]; MCF7", "value": 15.06, "unit": "%"},
      {"measurement": "Inhibition %", "setting": "[1]; MCF7", "value": 84.9, "unit": "%"},
      {"measurement": "inhibition at 10 µM", "setting": "[2]; Homo sapiens, IGROV-1, one dose 10 µM", "value": 55.8, "unit": "%"},
      {"measurement": "Growth %", "setting": "[2]; one dose 10 µM", "value": 44.2, "unit": "%"},
      {"measurement": "inhibition at 10 µM", "setting": "[3]; Homo sapiens", "value": 87.1, "unit": "%"},
      {"measurement": "Growth %", "setting": "[3]", "value": 12.92, "unit": "%"},
      {"measurement": "inhibition at 10 µM", "setting": "[4]; Homo sapiens", "value": 47.1, "unit": "%"},
      {"measurement": "Growth %", "setting": "[4]", "value": 52.93, "unit": "%"},
      {"measurement": "inhibition at 10 µM", "setting": "[5]; Homo sapiens", "value": 46, "unit": "%"},
      {"measurement": "Growth %", "setting": "[5]", "value": 54.02, "unit": "%"},
      {"measurement": "inhibition at 10 µM", "setting": "[6]; Homo sapiens", "value": 64.1, "unit": "%"},
      {"measurement": "Growth %", "setting": "[6]", "value": 35.89, "unit": "%"},
      {"measurement": "inhibition at 10 µM", "setting": "[7]; Homo sapiens", "value": 99.1, "unit": "%"},
      {"measurement": "Growth %", "setting": "[7]", "value": 0.94, "unit": "%"},
      {"measurement": "inhibition at 10 µM", "setting": "[8]; Homo sapiens", "value": 88.4, "unit": "%"},
      {"measurement": "Growth %", "setting": "[8]", "value": 11.64, "unit": "%"},
      {"measurement": "inhibition at 10 µM", "setting": "[9]; Homo sapiens", "value": 75.8, "unit": "%"},
      {"measurement": "Growth %", "setting": "[9]", "value": 24.24, "unit": "%"},
      {"measurement": "inhibition at 10 µM", "setting": "[10]; Homo sapiens, K562, one dose 10 µM", "value": 89.5, "unit": "%"},
      {"measurement": "Growth %", "setting": "[10]; one dose 10 µM", "value": 10.5, "unit": "%"},
      {"measurement": "inhibition at 10 µM", "setting": "[11]; Homo sapiens", "value": 72.9, "unit": "%"},
      {"measurement": "Growth %", "setting": "[11]", "value": 27.06, "unit": "%"},
      {"measurement": "inhibition at 10 µM", "setting": "[12]; Homo sapiens", "value": 94.2, "unit": "%"},
      {"measurement": "Growth %", "setting": "[12]", "value": 5.76, "unit": "%"},
      {"measurement": "inhibition at 10 µM", "setting": "[13]; Homo sapiens", "value": 77.1, "unit": "%"},
      {"measurement": "Growth %", "setting": "[13]", "value": 22.9, "unit": "%"},
      {"measurement": "inhibition at 10 µM", "setting": "[14]; Homo sapiens", "value": 82.5, "unit": "%"},
      {"measurement": "Growth %", "setting": "[14]", "value": 17.54, "unit": "%"},
      {"measurement": "inhibition at 10 µM", "setting": "[15]; Homo sapiens", "value": 83.7, "unit": "%"},
      {"measurement": "Growth %", "setting": "[15]", "value": 16.32, "unit": "%"},
      {"measurement": "inhibition at 10 µM", "setting": "[16]; Homo sapiens", "value": 55.9, "unit": "%"},
      {"measurement": "Growth %", "setting": "[16]", "value": 44.07, "unit": "%"},
      {"measurement": "inhibition at 10 µM", "setting": "[17]; Homo sapiens", "value": 80.6, "unit": "%"},
      {"measurement": "Growth %", "setting": "[17]", "value": 19.44, "unit": "%"},
      {"measurement": "inhibition at 10 µM", "setting": "[18]; Homo sapiens", "value": 87, "unit": "%"},
      {"measurement": "Growth %", "setting": "[18]", "value": 12.96, "unit": "%"},
      {"measurement": "inhibition at 10 µM", "setting": "[19]; Homo sapiens", "value": 50, "unit": "%"},
      {"measurement": "Growth %", "setting": "[19]", "value": 50.01, "unit": "%"},
      {"measurement": "inhibition at 10 µM", "setting": "[20]; Homo sapiens", "value": 78.1, "unit": "%"},
      {"measurement": "Growth %", "setting": "[20]", "value": 21.93, "unit": "%"},
      {"measurement": "inhibition at 10 µM", "setting": "[21]; Homo sapiens", "value": 44.5, "unit": "%"},
      {"measurement": "Growth %", "setting": "[21]", "value": 55.46, "unit": "%"},
      {"measurement": "inhibition at 10 µM", "setting": "[22]; Homo sapiens", "value": 22.3, "unit": "%"},
      {"measurement": "Growth %", "setting": "[22]", "value": 77.7, "unit": "%"},
      {"measurement": "inhibition at 10 µM", "setting": "[23]; Homo sapiens", "value": 81.3, "unit": "%"},
      {"measurement": "Growth %", "setting": "[23]", "value": 18.67, "unit": "%"},
      {"measurement": "inhibition at 10 µM", "setting": "[24]; Homo sapiens", "value": 51.4, "unit": "%"},
      {"measurement": "Growth %", "setting": "[24]", "value": 48.65, "unit": "%"},
      {"measurement": "inhibition at 10 µM", "setting": "[25]; Homo sapiens", "value": 2.19, "unit": "%"},
      {"measurement": "Growth %", "setting": "[25]", "value": 97.81, "unit": "%"},
      {"measurement": "Growth %", "setting": "[26]", "value": 75.35, "unit": "%"},
      {"measurement": "inhibition at 10 µM", "setting": "[26]; Homo sapiens", "value": 24.6, "unit": "%"},
      {"measurement": "inhibition at 10 µM", "setting": "[27]; Homo sapiens", "value": 55.5, "unit": "%"},
      {"measurement": "Growth %", "setting": "[27]", "value": 44.48, "unit": "%"},
      {"measurement": "inhibition at 10 µM", "setting": "[28]; Homo sapiens", "value": 67.1, "unit": "%"},
      {"measurement": "Growth %", "setting": "[28]", "value": 32.94, "unit": "%"},
      {"measurement": "inhibition at 10 µM", "setting": "[29]; Homo sapiens", "value": 62.1, "unit": "%"},
      {"measurement": "Growth %", "setting": "[29]", "value": 37.86, "unit": "%"},
      {"measurement": "inhibition at 10 µM", "setting": "[30]; Homo sapiens", "value": 35.3, "unit": "%"},
      {"measurement": "Growth %", "setting": "[30]", "value": 64.74, "unit": "%"}
    ]}
  ]
}
